Patent US4116950A, “Analogs of human β-endorphin” (Hoffmann-La Roche Inc., priority 1978, dated 1978)

Experiments:
guinea pig ileum = assay: Opiate activity by guinea pig ileum assay (in vitro); type: cell-based; conditions: for relative potency: calculated using the IC50 of βh-endorphin as 100%; for IC50: guinea pig ileum assay
Excerpt: (§1) In vitro assay of opiate activity was by the guinea pig ileum method of Kosterlitz et al, Brit. J. Pharmacol. 39, 398 (1970) and in vivo assay in mice was by the tail-flick method of D'Amour and Smith, J. Pharmacol. Exp. Therap. 72, 74 (1941). The experimental procedure and method of calculation has been outlined by Loh et al., Proc. Natl. Acad. Sci. 73, 2895 (1976) and Tseng et al., Nature 263, 239 (1976).

mice = assay: Analgesic potency in mice by tail-flick method (in vivo); conditions: for AD50: mice, tail-flick; for relative potency: molar basis, AD50 of βh-endorphin as 100%
Excerpt: as §1

Row | Substance | relative potency (guinea pig ileum) [%] | IC50 (guinea pig ileum) [nM] | AD50 (mice; intracerebroventricular) | relative potency (mice; intracerebroventricular) [%] | AD50 (mice; intravenous) | relative potency (mice; intravenous) [%] | duration of analgesic activity (mice; after iv injection compared with icv injection) | in vivo analgesic activity compared with βh-endorphin (mice; mouse, iv or icv, in words)
1 | [Ala^6,7, Phe^27, Gly^31 ] - βh -EP (YGGFMAAEKSQTPLVTLFKNAIIKNAFKKGG; Beta-endorphin; UniProt P01189 237-267, looked up, variant T6A S7A Y27F E31G) [Peptide II, analog of human β-endorphin substituted with Ala at 6 and 7, Phe at 27, Gly at 31] | 118 | 38 | 0.46(0.28-0.77) μg/mouse | 23 | 22.1(14.3-34.3) mg/kg | 49 | – | –
2 | [Nle^5, Phe^27, Gly^31 ] - βh -EP [Peptide III] | 118 | 38 | 0.31(0.14-0.72) μg/mouse | 35 | ca. 17.0 mg/kg | 65 | – | –
3 | [Phe^27, Gly^31 ] - βh -EP (YGGFMTSEKSQTPLVTLFKNAIIKNAFKKGG; Beta-endorphin; UniProt P01189 237-267, looked up, variant Y27F E31G) [Peptide I, analog of human β-endorphin substituted with Phe at 27 and Gly at 31] | 128 | 35 | 0.09(0.08-0.11) μg/mouse | 119 | 7.5(3.4-16.5) mg/kg | 148 | shorter than after icv injection | greater in vivo analgesic activity than the natural peptide
4 | [D-Thr^2, Phe^27, Gly^31 ] - βh EP [Peptide IV] | 136 | 33 | 0.52(0.24-1.16) μg/mouse | 21 | ca. 32.0 mg/kg | 32 | – | –
5 | βh -endorphin [reference compound] | 100 | 45 | 0.11(0.07-0.17) μg/mouse | 100 | 11.4(6.4-19.6) mg/kg | 100 | – | –
